Results on eight compounds are retold here after patent publication US12624003B2, “Carboxylic acid containing indanyl compounds for the treatment of neurodegenerative diseases” (Celgene Corporation, priority 2020, dated 2026).

The target in the test is T1, S1P5 (Homo sapiens, UniProt Q9H228).
T1 construct: expressed in transfected cells; host or cells: CHO cells (membranes)
T1 sequence (Q9H228 whole entry, species assumed): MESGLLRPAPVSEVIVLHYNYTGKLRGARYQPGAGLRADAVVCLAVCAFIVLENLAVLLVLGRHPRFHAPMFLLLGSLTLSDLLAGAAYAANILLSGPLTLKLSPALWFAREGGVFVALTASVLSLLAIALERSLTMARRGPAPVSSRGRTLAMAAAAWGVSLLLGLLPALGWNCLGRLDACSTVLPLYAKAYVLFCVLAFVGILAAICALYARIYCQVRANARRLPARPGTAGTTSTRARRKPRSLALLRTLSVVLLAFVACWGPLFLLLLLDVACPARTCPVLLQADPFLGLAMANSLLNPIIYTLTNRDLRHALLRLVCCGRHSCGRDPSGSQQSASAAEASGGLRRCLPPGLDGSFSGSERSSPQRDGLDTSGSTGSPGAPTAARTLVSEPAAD
The test is described as follows: [35S]-GTPγS functional binding assay on CHO-S1P5 membranes. Type of test: biochemical. The following applies: membranes of CHO cells expressing recombinant S1P5 receptors; measure of S1P5 agonism. Here is the method: CHO cells expressing recombinant S1P5 receptors were cultured in 500 cm^2 culture trays and, once confluent, rinsed and detached with cell-lifting buffer (10 mM HEPES, 154 mM NaCl, 6.85 mM EDTA, pH 7.4). Cells were then pelleted by centrifugation, resuspended, and homogenized in membrane preparation buffer (10 mM HEPES and 10 mM EDTA, pH 7.4) using a Polytron PT 1200E homogenizer (Kinematica, Luzern, Switzerland). Cellular proteins were pelleted by centrifugation at 48,000×g at 4° C. for 30 minutes. The resulting supernatant was discarded, and the pellet was re-suspended again in membrane preparation buffer, homogenized for a second time, and then centrifuged again as described above. The final cellular protein pellet was suspended in ice cold resuspension buffer (10 mM HEPES and 0.1 mM EDTA, pH 7.4), divided into aliquots, and stored at −80° C. until use.
Functional binding assays for [^35S]-GTPγS were performed in 96-well non-binding surface plates with a final volume of 200 μL. The test compounds were serially diluted in DMSO and added to assay plates using a Tecan D300E digital printer with a total volume of 0.4 μL. The control sphingosine-1-phosphate (S1P) was prepared separately by preparing a 400 μM stock solution from a 100 nmol pellet of SIP in 10 mM Na2CO3 with 2% s-cyclodextrin. The serial dilution of S1P was done using complete assay buffer (20 mM HEPES, 10 mM MgCl2, 100 mM NaCl, 1 mM EDTA, 0.1% fatty acid free bovine serum albumin (BSA), and 30 μg/mL saponin, pH 7.4) and transferred to wells already containing 0.4 μL DMSO. All the wells were then loaded to a total volume of 40 μL of complete assay buffer, except the non-specific binding (NSB) wells. For NSB wells, 40 μL/well of 50 μM GTPγS (Sigma Aldrich, cat #G8634, St. Louis, MO) was added to wells containing 0.4 μL of DMSO. The assay was started by the addition of 120 μL/well of CHO-S1P receptor membrane solution containing 40 μg/mL of membrane protein, 16.67 μM guanosine diphosphate (GDP; Sigma Aldrich, cat #G7127, St. Louis, MO), and 2.5 mg/mL of WGA PVT SPA beads in complete buffer. Assay plates were then sealed and incubated at room temperature with gentle agitation for 30 minutes. Next, 40 μL/well of 1 nM of [^35S]-GTPγS (PerkinElmer, cat #NEG030X250UC, Waltham, MA) in basic assay buffer (20 mM HEPES, 10 mM MgCl2, 100 mM NaCl, and 1 mM EDTA, pH 7.4) was added to the assay plates to yield a final concentration of […] and the plates were further incubated for 40 minutes at room temperature with gentle agitation. The assay was terminated by centrifugation of the plates at 1000 rpm for 3 minutes using an Eppendorf 5810R centrifuge (Eppendorf, Hamburg, Germany) and G protein bound radioactivity was quantitated using a MicroBeta2 microplate scintillation counter (PerkinElmer, Waltham, MA). As G protein bound radioactivity directly correlates to receptor activation and coupling to the G protein, this assay is a measure of S1P5 agonism.
Regarding `O=C(O)[C@]12C[C@H]1CN(C1CCc3cc(C#Cc4c(Cl)cccc4Cl)ccc31)C2` (stereo partly drawn) [Compound 15, (1R,5R)-3-(5-((2,6-dichlorophenyl)ethynyl)-2,3-dihydro-1H-inden-1-yl)-3-azabicyclo[3.1.0]-hexane-1-carboxylic acid], the EC50 is ≤ 10 nM.

Consider `O=C(O)[C@H]1[C@@H]2CN(C3CCc4cc(C#Cc5cccc(F)c5)ccc43)C[C@@H]21` (stereo partly drawn) [Compound 16, (1R,5S,6r)-3-(5-((3-fluorophenyl)ethynyl)-2,3-dihydro-1H-inden-1-yl)-3-azabicyclo[3.1.0]-hexane-6-carboxylic acid], for which the EC50 was 100 to 1000 nM.

With `O=C(O)[C@@H]1[C@@H]2CN(C3CCc4cc(C#Cc5cccc(F)c5)ccc43)C[C@@H]21` (stereo partly drawn) [Compound 17, (1R,5S,6s)-3-(5-((3-fluorophenyl)ethynyl)-2,3-dihydro-1H-inden-1-yl)-3-azabicyclo[3.1.0]-hexane-6-carboxylic acid], the EC50 was in the range of 10 to 100 nM.

Take `O=C(O)C1CC2(C1)CN(C1CCc3cc(C#Cc4c(Cl)cccc4Cl)ccc31)C2` (centres unmarked) [Compound 21, 2-(5-((2,6-dichlorophenyl)ethynyl)-2,3-dihydro-1H-inden-1-yl)-2-azaspiro[3.3]heptane-6-carboxylic acid]: the EC50 was in the range of 10 to 100 nM.

Turning to `O=C(O)C1CC2(C1)CN(C1CCc3cc(CCc4c(Cl)cccc4Cl)ccc31)C2` (centres unmarked) [Compound 29, 2-(5-(2,6-dichlorophenethyl)-2,3-dihydro-1H-inden-1-yl)-2-azaspiro[3.3]heptane-6-carboxylic acid], the EC50 lay in the range of 10 to 100 nM.

On to `CC(C)c1ccc(-c2ccc3c(c2)CCC3N2CCC(C(=O)O)CC2)cc1Cl` (centres unmarked) [Compound 33, 1-(5-(3-chloro-4-isopropylphenyl)-2,3-dihydro-1H-inden-1-yl)piperidine-4-carboxylic acid], for which the EC50 was ≤ 10 nM.

Regarding `O=C(O)C1CCCN(C2CCc3cc(-c4ccc(C5CC5)c(Cl)c4)ccc32)C1` (centres unmarked) [Compound 38, 1-(5-(3-chloro-4-cyclopropylphenyl)-2,3-dihydro-1H-inden-1-yl)piperidine-3-carboxylic acid], the concentration for a half-maximal effect (EC50) is 10 to 100 nM.

`O=C(O)C1CC2(C1)CN(C1CCc3cc(-c4ccc(C5CC5)c(Cl)c4)ccc31)C2` (centres unmarked) [Compound 39, 2-(5-(3-chloro-4-cyclopropylphenyl)-2,3-dihydro-1H-inden-1-yl)-2-azaspiro[3.3]heptane-6-carboxylic acid]: the EC50 was in the range of 10 to 100 nM.
